What was measured:
[1] = IV formulation end user compatibility study, microscopic particulate examination; format: physicochemical
Procedure: For the high concentration, […] of Compound I-tetrahydrate (4.0 mg/mL) was injected into a BBraun partial additive bag (PAB) for IV administration, attached to a Y-infusion set line. The other end of the Y infusion set line was connected to Lactated Ringer's Solution. Infusion is performed via the Y infusion set, such that the drug product is mixed with Lactated Ringer's Solution directly prior to administration. A total volume of 100 mL drug product at a rate of 50 mL/hr and 200 mL Lactated Ringer's Solution at a rate of 100 mL/hr were administered in a 2:1 ratio over a two hour period, to deliver 300 mL of eluent at a rate of 150 mL/hr.
The evaluation of particulate matter from collected IV samples was therefore performed by microscopic visual examination utilizing approximately 25 μL of IV co-infusion eluate, collected directly from the terminal end of the IV line, deposited on a microscope slide. […] The specific microscope settings used are shown below. A Positive Control sample containing a USP Particle Count Reference Standard consisting of spherical particles of known sizes between 10 μm and 15 μm (USP reference standard, Cat. No.: 1500502, lot #L0L142) was visualized under the microscope using a 10×10 lens.

[2] = Variable relative humidity (VRH)-XRPD analysis; format: physicochemical
Procedure: To investigate the behavior of Crystalline Form 2 at various humidities and evaluate conditions that favor generation of Form 2 (tetrahydrate) versus Form 3 (dihydrate), Form 2 was characterized by VRH-XRPD. The analysis was conducted by beginning at ambient RH (˜50%) and lowering to 0% RH for 4 hours. Actual RH during this time ranged from 0.7-0.3%.

[3] = USP <788> Method 1 HIAC particle count after mixing with Lactated Ringers; format: physicochemical; settings: 4 mg/mL mixed with Lactated Ringers 2:1, held in glass or Nalgene container
Procedure: In USP <788> monograph, two methods were provided to determine particles or particulate matter in an injectable drug, i.e. using an analytical instrument to count particle or Method I (e.g. electronic light obscuration or HIAC method) or counting the particles using an optical microscope (Method 2). Prior to conducting the End-User Compatibility Study, a study was performed to determine the feasibility of sample collection and assessment by USP <788> Method I (HIAC analysis). For this study, Compound I-tetrahydrate (4 mg/mL) was mixed with Lactated Ringers IV Solution in a 2:1 ratio of Lactated Ringers solution to Compound I-tetrahydrate and held in a glass or Nalgene plastic container. Samples were held for 1, 5, 10, 15, 20, 25 and 30 minutes and analyzed by USP <788> Method 1 using a HIAC electronic light obscuration particle counter. […] This short time duration precluded the use of USP <788> Method 1 (HIAC) due to the large sample volumes (˜25 mL) and length of time required to collect this volume of sample, drop wise, from the infusion set.

[4] = Dynamic vapor sorption (DVS); format: physicochemical
Procedure: The mass uptake of 12% is equal to three equivalents of water; however, the material was not fully dry yet after drying at 0% RH for 24 hours. […] The water uptake and release is not stepwise, and no indication of other hydrates with different ratios of water is present.
Compound I-hydrate Form 2 was also analyzed by DVS (FIG. 14). Form 2 steadily gained 1.1 wt % from 5-95% RH. It underwent complete desorption with minor hysteresis.

[5] = Single dose intravenous infusion in rats, toxicokinetic parameters in serum; format: in vivo, Sprague-Dawley rats
Procedure: Compound I-hydrate Form 2 was formulated in 23% Solutol HS-15 and 70% PG and diluted with Lactated Ringer Solution to a concentration of 0.061 mg/mL. […] Dose volume was 10 mL/Kg and the infusion rate was 120 mL/kg/hr.
Following dosing, a series of 12 blood samples (approximately 0.2 mL each) were collected from the rats in the first 72 hours. Following collection, blood samples were allowed to stand at room temperature for approximately 30 to 60 minutes to clot and then centrifused (1200×g for 10 minutes at approximately 4° C.) and the resulting serum was recovered and stored frozen until analysis. Mean toxicokinetic parameters were calculated (Table 7).

[6] = Effect of drying on polymorphic form, XRPD; format: physicochemical
Procedure: Crystalline Compound I-tetrahydrate Form 2 was dried under varying temperature, pressure, and time as indicted in Table 2. After the drying, the resulting crystals were analyzed by XRPD to determine its polymorphic form.

[7] = Polymorph transition study, slurry in water-methanol, XRPD; format: physicochemical; settings: in the presence of water
Procedure: The Slurry was maintained at 20° C. or at 50° C. for one week then the resulting crystals were analyzed by XRPD to determine its polymorphic form.

[8] = 4.0 mg/mL, Y-infusion with Lactated Ringer's Solution 2:1, 120 min simulated infusion run

filter clogging or stoppage of the infusion pump [1, 8]: No filter clogging | particles by microscope examination in eluent samples [1, 8]: no particles were detected | time material may be infused without filter clogging ([1]; "Y-Line" infusion set): up to 2 hours | VRH-XRPD Results ([2]; Held at ~0.3-0.7% RH, 4 hours): Form 2 + Form 3; amount of Form 3 | VRH-XRPD Results ([2]; Initial scan at ambient RH (46.3%)): Consistent with Form 2 | VRH-XRPD Results ([2]; finally held at ambient RH (~40% to ~37%)): Form 2 + trace amount of Form 3 | VRH-XRPD Results ([2]; then held at ~50% RH, 1 hour (cycling back)): Form 2, possibly contains trace | VRH-XRPD Results ([2]; then held at ~50% RH, 1 hour (increasing RH)): Form 2 + Form 3 | VRH-XRPD Results ([2]; then held at ~80% RH, 1 hour (cycling back)): Form 2, possibly contains trace | VRH-XRPD Results ([2]; then held at ~82-79% RH, 1 hour): Form 2 + trace amount of Form 3 | VRH-XRPD Results ([2]; then held at ~85-87% RH, 2 hours): Form 2, possibly contains trace | time at which particulate formed at levels exceeding USP acceptance criteria [3]: approximately 10 minutes | XRPD of the post-DVS solids ([4]; after sorption to 95% RH and desorption to 5% RH): No form change | DVS total mass uptake ([4]; continuous isothermal adsorption of water after drying at 0% RH for 24 hours (FIGS. 7 and 8)): 12% | DVS weight gain ([4]; from 5-95% RH): 1.1 wt % | stability in DVS de-sorption cycle ([4]; stable signal down to 10% RH): very stable | stability under various drying conditions ([6]; 15-35 ° C., 600-0 mbar, up to 3 days): stable | Polymorphic form by XRPD after drying ([6]; 15 ° C., 0 mbar, drying time 1 h): Form 2 | Polymorphic form by XRPD after drying ([6]; 15 ° C., 0 mbar, drying time 4 h): Form 1 | Polymorphic form by XRPD after drying ([6]; 15 ° C., 0 mbar, drying time 24 h): Form 1 | Polymorphic form by XRPD after drying ([6]; 15 ° C., 0 mbar, drying time 3 days): Form 1 | Polymorphic form by XRPD after drying ([6]; 15 ° C., 400 mbar, drying time 1 h): Form 2 | Polymorphic form by XRPD after drying ([6]; 15 ° C., 400 mbar, drying time 4 h): Form 2 | Polymorphic form by XRPD after drying ([6]; 15 ° C., 400 mbar, drying time 24 h): Form 2 | Polymorphic form by XRPD after drying ([6]; 15 ° C., 400 mbar, drying time 3 days): Form 2 | Polymorphic form by XRPD after drying ([6]; 15 ° C., 600 mbar, drying time 1 h): Form 2 | Polymorphic form by XRPD after drying ([6]; 15 ° C., 600 mbar, drying time 4 h): Form 2 | Polymorphic form by XRPD after drying ([6]; 15 ° C., 600 mbar, drying time 24 h): Form 2 | Polymorphic form by XRPD after drying ([6]; 15 ° C., 600 mbar, drying time 3 days): Form 2 | Polymorphic form by XRPD after drying ([6]; 25 ° C., 0 mbar, drying time 1 h): Form 2 | Polymorphic form by XRPD after drying ([6]; 25 ° C., 0 mbar, drying time 4 h): Form 1 | Polymorphic form by XRPD after drying ([6]; 25 ° C., 0 mbar, drying time 24 h): Form 1 | Polymorphic form by XRPD after drying ([6]; 25 ° C., 400 mbar, drying time 1 h): Form 2 | Polymorphic form by XRPD after drying ([6]; 25 ° C., 400 mbar, drying time 4 h): Form 2 | Polymorphic form by XRPD after drying ([6]; 25 ° C., 400 mbar, drying time 24 h): Form 2 | Polymorphic form by XRPD after drying ([6]; 25 ° C., 400 mbar, drying time 3 days): Form 2 | Polymorphic form by XRPD after drying ([6]; 25 ° C., 600 mbar, drying time 1 h): Form 2 | Polymorphic form by XRPD after drying ([6]; 25 ° C., 600 mbar, drying time 4 h): Form 2 | Polymorphic form by XRPD after drying ([6]; 25 ° C., 600 mbar, drying time 24 h): Form 2 | Polymorphic form by XRPD after drying ([6]; 25 ° C., 600 mbar, drying time 3 days): Form 2 | Polymorphic form by XRPD after drying ([6]; 35 ° C., 0 mbar, drying time 1 h): Form 1 and Form 2 | Polymorphic form by XRPD after drying ([6]; 35 ° C., 0 mbar, drying time 4 h): Form 1 | Polymorphic form by XRPD after drying ([6]; 35 ° C., 0 mbar, drying time 24 h): Form 1 | Polymorphic form by XRPD after drying ([6]; 35 ° C., 400 mbar, drying time 1 h): Form 2 | Polymorphic form by XRPD after drying ([6]; 35 ° C., 400 mbar, drying time 4 h): Form 2 | Polymorphic form by XRPD after drying ([6]; 35 ° C., 400 mbar, drying time 24 h): Form 2 | Polymorphic form by XRPD after drying ([6]; 35 ° C., 600 mbar, drying time 1 h): Form 2 | Polymorphic form by XRPD after drying ([6]; 35 ° C., 600 mbar, drying time 4 h): Form 2 | Polymorphic form by XRPD after drying ([6]; 35 ° C., 600 mbar, drying time 24 h): Form 2 | form change under full vacuum ([6]; full vacuum (0 mbar) for four hours, all temperature tested): complete conversion to Form 1 | stability relative to Crystalline Form 1 [7]: more stable
SMILES: Cc1[nH]c2ccc(F)cc2c1-c1nc2c3cccnc3c3ncccc3c2[nH]1 [Compound I-hydrate Form 2]
AUC(0-inf) ([5]; Sprague-Dawley, rat, male rats serum, 0.5 mg/kg, single IV infusion over 5 min, mean): 130 ng·h/mL | AUC(0-t) ([5]; Sprague-Dawley, rat, male rats serum, 0.5 mg/kg, single IV infusion over 5 min, mean, read-out: AUC0-Tlast): 100 ng·h/mL | clearance ([5]; Sprague-Dawley, rat, male rats serum, 0.5 mg/kg, single IV infusion over 5 min, mean, read-out: Cl (total body clearance per kg body weight) (converted)): 64 mL/min/kg | Cmax ([5]; Sprague-Dawley, rat, male rats serum, 0.5 mg/kg, single IV infusion over 5 min, mean, read-out: Cmax (maximum plasma concentration)): 1750 ng/mL | half-life ([5]; Sprague-Dawley, rat, male rats serum, 0.5 mg/kg, single IV infusion over 5 min, mean, read-out: T1/2 (Terminal elimination half-life) (converted)): 1.45 h | Tmax ([5]; Sprague-Dawley, rat, male rats serum, 0.5 mg/kg, single IV infusion over 5 min, mean, read-out: Tmax (time to maximum plasma concentration)): 0 h | Vd ([5]; Sprague-Dawley, rat, male rats serum, 0.5 mg/kg, single IV infusion over 5 min, mean, read-out: Vz (volume of distribution per kg body weight)): 8.04 L/kg | AUC % Extrap ([5]; male rats serum, 0.5 mg/kg, single IV infusion over 5 min, mean): 23.1% | AUCs, fold higher than with Compound I-HCl salt ([5]; rats, 0.5 mg/kg IV): approximately 3 fold | Cmax, fold higher than with Compound I-HCl salt ([5]; rats, 0.5 mg/kg IV): approximately 3 fold | volume of distribution, fold higher than Compound I-HCl salt ([5]; rats, 0.5 mg/kg IV): 1.6 fold
